Measured values published in article PMC3216401 (Antiviral research, 2011).
Several values for one entry are separate records, joined by “and”; a condition that tells them apart may be missing. Equal entries are not always repeated. Where two headings read alike, the source gives them in different places.

Assays:
[1] = tested on: Influenza A/Vietnam/1203/2004 (H5N1); assay: microbe, parasite or virus in culture; format: cell-based; details: H5N1, MDCK, read-out: IC90, VYR Assay
[2] = tested on: A/Hong Kong/213/2003H (A/Hong Kong/213/2003 × Ann Arbor/6/60 hybrid); assay: microbe, parasite or virus in culture; format: cell-based; details: Influenza A virus, MDCK, read-out: IC90, VYR Assay
[3] = tested on: A/Gull/PA/4175/83 (H5N1); assay: microbe, parasite or virus in culture; format: cell-based; details: Influenza A virus, H5N1, MDCK, read-out: IC90, VYR Assay
[4] = tested on: A/Duck/MN/1525/81 (H5N1); assay: microbe, parasite or virus in culture; format: cell-based; details: Influenza A virus, H5N1, MDCK, read-out: IC90, VYR Assay
[5] = tested on: Influenza A/Vietnam/1203/2004 (H5N1)
[6] = tested on: Influenza A/Vietnam/1203/2004 (H5N1); remark: listed apart in the source
[7] = tested on: Influenza A/Sydney/05/97 (H3N2)
[8] = tested on: Influenza A/Sydney/05/97 (H3N2); remark: listed apart in the source
[9] = tested on: A/Hong Kong/213/2003H (A/Hong Kong/213/2003 × Ann Arbor/6/60 hybrid)
[10] = tested on: A/Hong Kong/213/2003H (A/Hong Kong/213/2003 × Ann Arbor/6/60 hybrid); remark: listed apart in the source
[11] = tested on: B/Malaysia/2506/2004
[12] = tested on: B/Florida/4/2006
[13] = tested on: influenza A/Vietnam/1203/2004 H5N1 virus; details: in vivo
[14] = mouse, in vivo
[15] = in vitro; details: dog, CC50 values, range, neutral red uptake assay
[16] = tested on: Influenza A/Vietnam/1203/2004 (H5N1); assay: microbe, parasite or virus in culture; details: H5N1, MDCK, read-out: IC50, Visual Assay
[17] = tested on: Influenza A/Vietnam/1203/2004 (H5N1); assay: microbe, parasite or virus in culture; details: H5N1, MDCK, read-out: IC50, Neutral Red Uptake Assay
[18] = tested on: Influenza A/Sydney/05/97 (H3N2); assay: microbe, parasite or virus in culture; details: H3N2, MDCK, read-out: IC50, Visual Assay
[19] = tested on: A/Vietnam/1203/04H (A/Vietnam/1203/04 × Ann Arbor/6/60 hybrid); assay: microbe, parasite or virus in culture; details: Influenza A virus, H1N1|H5N1, MDCK, read-out: IC50, Visual Assay
[20] = tested on: A/Gull/PA/4175/83 (H5N1); assay: microbe, parasite or virus in culture; details: Influenza A virus, H5N1, MDCK, read-out: IC50, Visual Assay
[21] = tested on: A/Thailand/2(Kan-1)/16/2004 (H5N1); assay: microbe, parasite or virus in culture; format: cell-based; details: Influenza A virus, H5N1, MDCK, read-out: IC90, VYR Assay
[22] = tested on: A/Hong Kong/213/2003 (H5N1); assay: microbe, parasite or virus in culture; format: cell-based; details: Influenza A virus, H5N1, MDCK, read-out: IC90, VYR Assay
[23] = tested on: influenza viruses; assay: microbe, parasite or virus in culture; format: cell-based, influenza A and B viruses; details: Influenza A virus, MDCK, read-out: IC50, all viruses tested
[24] = tested on: influenza A/CA/04/09 pandemic H1N1 virus; design: species or system BALB/c mice; details: mouse, in vivo
[25] = tested on: A/Thailand/2(Kan-1)/16/2004 (H5N1)
[26] = tested on: A/Thailand/2(Kan-1)/16/2004 (H5N1); remark: listed apart in the source
[27] = tested on: A/Hong Kong/213/2003 (H5N1)
[28] = tested on: A/Hong Kong/213/2003 (H5N1); remark: listed apart in the source
[29] = tested on: influenza virus; details: in vivo; cited from earlier work
[30] = tested on: A/Thailand/2(Kan-1)/16/2004 (H5N1); assay: microbe, parasite or virus in culture; details: Influenza A virus, H5N1, MDCK, read-out: IC50, Visual Assay
[31] = tested on: A/Thailand/2(Kan-1)/16/2004 (H5N1); assay: microbe, parasite or virus in culture; details: Influenza A virus, H5N1, MDCK, read-out: IC50, Neutral Red Uptake Assay
[32] = tested on: A/Hong Kong/213/2003 (H5N1); assay: microbe, parasite or virus in culture; details: Influenza A virus, H5N1, MDCK, read-out: IC50, Visual Assay
[33] = tested on: A/Hong Kong/213/2003 (H5N1); assay: microbe, parasite or virus in culture; details: Influenza A virus, H5N1, MDCK, read-out: IC50, Neutral Red Uptake Assay

In the case of Nc1ccn([C@@H]2O[C@H](CO)[C@@H](O)C2(F)F)c(=O)n1 [2’-deoxy-2’, 2’-difluorocytidine, reference compound], the IC90 [1] is reported as 30 nM, the IC90 [2] is reported as 40 nM and the IC90 [3] is reported as 130 nM. The IC90 [4] was 250 nM, the “SI (CC50/IC50), Visual Assay” value [5] was over 3100 and the “SI (CC50/IC50), Neutral Red Uptake Assay” value [6] was over 3100. For the same compound, the “SI (CC50/IC50), Visual Assay” value [7] was 67, the “SI (CC50/IC50), Neutral Red Uptake Assay” value [8] was 5.7 and the “SI (CC50/IC50), Visual Assay” value [9] was over 3100. For the same compound, the “SI (CC50/IC50), Neutral Red Uptake Assay” value [10] was over 1538, the “SI (CC50/IC50), Visual Assay” value [11] was over 3100 and the “SI (CC50/IC50), Visual Assay” value [12] was over 1400. The “Inhibition in the H5N1 mouse model” value [13] was “not inhibitory”, the “Toxicity in the H5N1 mouse model” value [13] was “very toxic” and the “Protection against lethal challenge” value ([13]; mouse) was “not significantly effective”. The “Tolerability in uninfected mice” value [14] was “well tolerated”, the CC50 [15] was 1100 to 280000 nM and the IC50 [16] was under 32 nM. The IC50 [17] was under 32 nM, the IC50 [18] was 180 nM and the IC50 [19] was under 320 nM. It also gave an IC50 [20] of 210 nM.

Nc1ccn([C@@H]2O[C@H](CO)[C@@H](O)[C@H]2F)c(=O)n1 [2’-deoxy-2’-fluorocytidine, 2'-deoxy-2'-fluorocytidine] showed an IC90 [21] of 690 nM, an IC90 [22] of 1540 nM and an IC90 [2] of 5100 nM. It also gave an IC90 [3] of 6100 nM, an IC90 [4] of 5900 nM and an IC50 [23] of under 15000 nM. For the same compound, the Live/Total [24] was 5/10 and 4/10 and 0/10, the “Mean Day of Death ± SD” value [24] was 7.8 ± 1.3 days and 8.9 ± 1.2 days and 9.3 ± 2.1 days and the “SI (CC50/IC50), Visual Assay” value [25] was over 676 ± 204. For the same compound, the “SI (CC50/IC50), Neutral Red Uptake Assay” value [26] was over 251 ± 249, the “SI (CC50/IC50), Visual Assay” value [27] was over 1954 ± 553 and the “SI (CC50/IC50), Neutral Red Uptake Assay” value [28] was over 447 ± 216. The “SI (CC50/IC50), Visual Assay” value [7] was over 170, the “SI (CC50/IC50), Neutral Red Uptake Assay” value [8] was over 40 and the “SI (CC50/IC50), Neutral Red Uptake Assay” value [10] was over 14. For the same compound, the “SI (CC50/IC50), Visual Assay” value [11] was over 53, the “SI (CC50/IC50), Visual Assay” value [12] was over 100 and the “Maximum tolerated effective dose” value ([13]; female, BALB/c, mouse, ip) was 60 mg/kg/day. The “Lung Score ± SD” value ([13]; mouse) was 0.4 ± 0.25 and 0.2 ± 0.27, the “Mice protected from lethal effects” value ([13]; mouse) was 60% and the “Protection from death, i.p.” value ([13]; mouse) was “partially, but significantly protected from death”. For the same compound, the “Protection from mortality, per os” value ([13]; mouse) was “not protected from mortality”, the “Virus Lung Titers ± SD” value ([13]; mouse) was 3.60 ± 1.303 Log10/g and 4.01 ± 0.713 Log10/g and the “Effect on virus lung titers in the mouse model” value [29] was “did not reduce virus lung titers”. For the same compound, the IC50 [30] was 160 ± 40 nM, the IC50 [31] was 720 ± 510 nM and the IC50 [32] was 50 ± 10 nM. It also gave an IC50 [33] of 270 ± 140 nM, an IC50 [18] of 590 nM and an IC50 [19] of 2100 nM. For the same compound, the IC50 [20] was 910 nM.
